Patent US20160175224A1, “ANTIPERSPIRANT COMPOSITION” (priority 2014, published 2016)

Tested on: subjects' underarms
Experiment: In vivo study of eight-hour antiperspirant efficacy (FDA Guidelines for Effectiveness Testing of OTC Antiperspirant Drug Products, hot room, weighed pads)
Parameters: species or system human
Conditions: for Antiperspirant activity against FDA Guidelines success criteria (minimum of 20% sweat reduction in at least 50% volunteers): eight-hour efficacy, day 30 of application period; for % of subjects with reduction in relation to control / Average % of sweat reduction (mg): roll-on compositions of Examples 7-9 applied daily to one underarm for 30 days, eight hours after, hot room 37.8° C.; for % of subjects with reduction in relation to control: other underarm untreated control, 30-40% RH, 80 minutes, fifteen subjects per composition; for Average % of sweat reduction (mg): relative to untreated control underarm, pad weights
Procedure: An in vivo study of the eight-hour antiperspirant efficacy of the compositions of Examples 7, 8 and 9 was performed as follows using the US FOOD AND DRUG ADMINISTRATION Guidelines for Effectiveness Testing of OTC Antiperspirant Drug Products, 2003. Example 7 was comparative, as indicated above.
Fifteen subjects were used to test each composition. Subjects were first subjected to a 21-day conditioning period, which began with a 14 day wash out period. During 14 day wash out period, the subjects used a standard bar soap and bacteriostatic deodorant supplied by the institute running the study. […] Following this, from day 15 to day 21 the subjects were instructed to use only standard soap and discontinue the bacteriostatic deodorant.
During the conditioning period, subjects were instructed and supervised by a trained technician to wash their underarms according to the following procedure: a) wash one of the underarms for 10 seconds with an aqueous solution of standard soap 2.0%; b) rinse thoroughly with running water until the soap is completely removed; c) dry the underarm with a paper towel; and d) repeat the procedure with the other underarm.
After the wash out period was completed, each subject was checked for unauthorized use of antiperspirant products during the conditioning period using a cotton swab in the underarms.
Next, a 30 day application period began. 150 cm^2, randomly distributed areas were marked on each subjects' underarm. Test samples were then applied to one underarm of each subject, while the other underarm was untreated as a control every day during the 30 day application period. Subjects waxed or shaved their underarms every Friday evening.
On day 30 of the 30 day application period, each subject was provided with a 100% cotton t-shirt previously washed with water and neutral soap without fragrance and again washed only with water. The subjects were instructed to wear the T-shirts for eight hours.
After eight hours, the subjects were placed in a room at 37.8° C.±1° C. and relative humidity between 30% and 40% for 80 minutes. After 40 minutes in the hot room, pads previously weighed and stored in closed polyethylene bags were removed from the bags and placed immediately onto the subjects' underarms, and then replaced every 20 minutes. Subjects ingested 200 mL of water when entering the hot room and also 40 minutes later in order to maintain the internal level of hydration, allowing the sweat to flow freely and evidencing only the effects of the formulation of the product tested. The initial 40 minute period was considered as an acclimatization period.
Used pads were collected every 20 minutes and weighed. The weights of the pads pre- and post-use were compared according to the FDA Guidelines using statistical analysis with the Wilcoxon Signed Rank test (FDA protocol) and the Student-t test paired with the unilateral hypothesis of improvement for sweating assessment. The confidence level considered in the comparative analysis was 95%. Software: XLSTAT 2013 and MINITAB 14.

Row | Substance | Antiperspirant activity against FDA Guidelines success criteria (minimum of 20% sweat reduction in at least 50% volunteers) | % of subjects with reduction in relation to control [%] | Average % of sweat reduction (mg) [%] | Average % of sweat reduction (mg) (listed as acetyl hexapeptide-8) [%]
1 | dipeptide diaminobutyroyl benzylamide diacetate | confirms antiperspirant activity | 92.3 | 25.6 | 
2 | acetyl octapeptide-3 | confirms antiperspirant activity | 81.8 | 20.7 | 
3 | acetyl hexapeptide-8 [reference compound] | did not meet success criteria | 66.7 | 8.0 | 8.0
